Common to all, as to format: cell-based
One assay concerns SKBR-3. The experiment in a line: Tumor cell inhibition experiment (CCK-8), SKBR-3. The following applies: SKBR-3, HER2 3+, 3 days, read-out: IC50 values (nM) of anti-HER2 antibody-drug conjugates to HER2-expressing tumor cells. The method, then:
(§1) This example examined the inhibitory activity of the antibody-drug conjugates of the present invention on HER2-positive cells. The tumor cell lines in this example were all purchased from ATCC, USA.
(§2) The experimental steps are as follows:
(§3) The cells were digested, collected by centrifugation, counted, and the cell liquid was diluted to 0.4-2.0×10^5 cells/ml, and 100 μl of said cell suspension was added to each well of a 96-well plate. The cells were cultured overnight in a 37° C. cell culture incubator, and ADC drugs with corresponding concentration was added the next day. The initial concentration of the drug was 1-15 μg/ml, and was diluted in 3-fold equal-gradient with a total of 9 concentration gradients. Finally, a set of zero-concentration cell were set as controls. After addition of drug, the cells were cultured for 3 days, and the drug-containing medium was sucked. 100 μl of 10% CCK-8 solution was added to each well, and incubated at 37° C. for 1-2 h, and then absorbance intensity of each well was detected at 490 nm with a microplate reader. The data was imported into a mapping software, the curve was fitted, and IC50 values were calculated.

The next assay concerns NCI-N87. Description: Tumor cell inhibition experiment (CCK-8), NCI-N87. The following applies: NCI-N87, HER2 3+, 3 days, read-out: IC50 values (nM) of anti-HER2 antibody-drug conjugates to HER2-expressing tumor cells. As to the method:
as §1, §2, §3

A further assay concerns OE-19. Description: Tumor cell inhibition experiment (CCK-8), OE-19. The following applies: OE-19, HER2 3+, 3 days, read-out: IC50 values (nM) of anti-HER2 antibody-drug conjugates to HER2-expressing tumor cells. The method, then:
as §1, §2, §3

In a further assay the test system is BT474. The experiment in a line: Tumor cell inhibition experiment (CCK-8), BT474. The note with it: BT474, HER2 3+, 3 days, read-out: IC50 values (nM) of anti-HER2 antibody-drug conjugates to HER2-expressing tumor cells. The method, then: as §1, §2, §3
Another assay has as its system HCC1954. Description: Tumor cell inhibition experiment (CCK-8), HCC1954. The note with it: HCC1954, HER2 3+, 3 days, read-out: IC50 values (nM) of anti-HER2 antibody-drug conjugates to HER2-expressing tumor cells. The method, then: as §1, §2, §3
For the next assay, the system named is MDA453. Description: Tumor cell inhibition experiment (CCK-8), MDA453. The following applies: MDA453, HER2 2+, 3 days, read-out: IC50 values (nM) of anti-HER2 antibody-drug conjugates to HER2-expressing tumor cells. The method, then: as §1, §2, §3

Usually IC50 stands for the midpoint of a concentration-inhibition curve.

For T-DM1, the IC50 was determined as 0.114 nM with SKBR-3; 0.548 nM in the assay with NCI-N87; 0.099 nM with OE-19; 0.622 nM with BT474; 0.159 nM with HCC1954; 0.259 nM with MDA453.

These data come from patent US12318455B2, “Anti-HER2 antibody-drug conjugate and application thereof” (HANGZHOU ADCORIS BIOPHARMA CO., LTD., priority 2016, dated 2025).
